Measurements: publication PMC8073907, “Peptide targeting of lysophosphatidylinositol-sensing GPR55 for osteoclastogenesis tuning” (Cell Communication and Signaling : CCS, 2021)

How the values were obtained:
[1] = tested on: endogenous GPR55 (HeLa); assay: LPI-induced ERK/p38 phosphorylation in shCTRL-HeLa clones (Western blot); format: cell-based, human; details: 10 µM soybean LPI, 10 min, mean of three independent experiments
Method: For stable interference of GPR55, HeLa cells were plated at 1.5 × 10^5 cells/well in six-well plates in growth medium without antibiotics, and 24 h later, the cells were transfected with 1.7 µg/well OmicsLink short hairpin (sh)RNA expression clone CSHCTR001-CU6 (shCTRL) or clone HSH022476-3-CU6 (shGPR55) from GeneCopoeia (Rockville, MD, USA), using Lipofectamine 2000, according the manufacturer instructions. Forty-eight hours after transfection, HeLa clones stably expressing shRNAs were selected in growth medium containing 0.3 µg/mL puromycin. The efficiency of interference was monitored by real-time PCR using the primers listed in the Additional file 1: Table S1. HPRT1 was followed as a housekeeping gene.
Twenty-four hours after transfection (HEK293T, HeLa cells or clones) or 72 h after interference (RAW264.7 cells), the cells were washed twice with HBSS^++, serum deprived (HEK293T cells for 4 h in DMEM; HeLa cells and clones for 2 h in MEM plus 2 mM glutamine and 25 mM HEPES; RAW264.7 cells for 2 h in DMEM), washed once again with HBSS^++, incubated in stimulation buffer (HBSS^++ with 10 mM HEPES, 0.4% faf-BSA for HEK293T cells; HBSS^++ with 25 mM HEPES and 0.01% faf-BSA for HeLa cells, clones, and RAW264.7 cells) in the absence or presence of stimuli, at 37 °C for the indicated times. Incubations were terminated by washing the cells twice with cold HBSS^++, and the analyses were performed as reported below.
Cell lysates were obtained by scraping the cells into phospho-lysis buffer: 50 mM Tris–HCl, pH 7.5, 100 mM NaCl, 5 mM EDTA, 1% Triton X-100, 50 mM NaF, 40 mM β-glycerophosphate, 200 µM sodium orthovanadate, plus protease and phosphatase inhibitors (Roche). Following gentle homogenisation by 20 passages through a 26-gauge needle, the lysates were centrifuged at 10,000×g for 5 min at 4 °C, and the supernatants were collected.
Protein lysates were subjected to SDS-PAGE, and after electrophoresis, the proteins were transferred to a nitrocellulose membrane (PerkinElmer Life Science, Boston, MA, USA). For immunoblotting, the membranes were blocked with 5% non-fat milk in TBS (10 mM Tris–HCl, pH 7.4, 10 mM NaCl) plus 0.1% Tween-20 (T-TBS) for 30 min at room temperature, and incubated with primary antibodies in T-TBS plus 3% BSA for 2 h at room temperature, or overnight at 4 °C. The membranes were washed twice in T-TBS for 7 min, and then incubated with secondary antibodies conjugated to horseradish peroxidase (1:5,000) (Calbiochem, San Diego, CA, USA) in T-TBS with 5% non-fat milk for 30 min at room temperature. The membranes were then washed twice with T-TBS and once with TBS for 5 min, and the signals were detected by ECL (Amersham Pharmacia, Piscataway, NJ, USA). The rabbit anti-phospho AKT (Ser473), anti-phospho p38 (Thr180/Tyr182), anti-phospho p42/44 (Thr202/Tyr204), anti-p38 (all at dilution 1:1000) were from Cell Signaling Technology (Danvers, MA, USA). The rabbit anti-AKT (B-1), and anti-p42/44 (ERK1; K-23) were from Santa Cruz Biotechnology.

[2] = tested on: ssGPR55 wild-type; assay: GPR55-internalisation assay, wild-type (FACS); format: cell-based, human; details: 10 µM soybean LPI
Method: HeLa cells were plated at 1.5 × 10^5 cells/well in six-well plates in their growth medium without antibiotics. Twenty-four hours later, the cells were transfected with 2.5 µg/well pcDNA3.1, or the mutants ssGPR55-K80A, ssGPR55-Q87A, or 1.25 µg/well (complemented with 1.25 µg/well empty vector) ssGPR55, using Lipofectamine 2000, according to the manufacturer instructions. The different cDNA amounts were necessary to reach equivalent plasma-membrane expression of the receptors, as the mutants were expressed at lower levels, as verified by FACS analyses, and in line with previous reports. […]
For the GPR55-internalisation assay, after stimulation, the HeLa cells were washed twice with cold HBSS^++, stained while adhered with the monoclonal anti-HA antibody (1:1000) in PBS plus 3% BSA for 1 h on ice, washed three times with cold PBS, incubated with the Alexa488-tagged anti-mouse antibody (1:800) in PBS plus 3% BSA for 45 min on ice. […] The collected cells were centrifuged at 300×g, suspended in PBS plus 3% BSA, and analysed by FACS.

lysophosphatidylinositol [LPI]
ERK2 phosphorylation upon LPI stimulation [1]: 7.8 -fold basal levels
p38 phosphorylation upon LPI stimulation [1]: 2.5 -fold basal levels
time to plateau of LPI-induced internalisation ([2]; overexpressed ssGPR55 in HeLa cells): 10 min
reduction of cell-surface level of receptor ([2]; ssGPR55 wild-type, HeLa, 15 min, three independent experiments): 30%
